Experimental data as given in ChEMBL document CHEMBL4507278 (2021).

Tests used:
[1] = system: Leucine-rich repeat serine/threonine-protein kinase 2 (Homo sapiens), Q5S007 [G2019S]; conditions: Compound concentration 1000.0 nM
[2] = target: Serine/threonine-protein kinase pim-3 (Homo sapiens) (UniProt Q86V86); conditions: Compound concentration 1000.0 nM
[3] = target: Mitogen-activated protein kinase kinase kinase 7 (Homo sapiens) (UniProt O43318); conditions: Compound concentration 1000.0 nM
[4] = target: Serine/threonine-protein kinase WNK3 (Homo sapiens) (UniProt Q9BYP7); conditions: Compound concentration 1000.0 nM
[5] = target: Serine/threonine-protein kinase PLK3 (Homo sapiens) (UniProt Q9H4B4); conditions: Compound concentration 1000.0 nM
[6] = target: Mitogen-activated protein kinase kinase kinase kinase 1 (Homo sapiens) (UniProt Q92918); conditions: Compound concentration 1000.0 nM
[7] = target: Non-receptor tyrosine-protein kinase TYK2 (Homo sapiens) (UniProt P29597); conditions: Compound concentration 1000.0 nM
[8] = target: Sigma intracellular receptor 2 (Homo sapiens) (UniProt Q5BJF2); conditions: Compound concentration 10.0 uM
[9] = target: Phosphatidylinositol 3-kinase catalytic subunit type 3 (Homo sapiens) (UniProt Q8NEB9); conditions: Compound concentration 1000.0 nM
[10] = system: Receptor-type tyrosine-protein kinase FLT3 (Homo sapiens), P36888 [UNDEFINED MUTATION]; conditions: Compound concentration 1000.0 nM
[11] = target: Ephrin type-A receptor 8 (Homo sapiens) (UniProt P29322); conditions: Compound concentration 1000.0 nM
[12] = target: Glycogen synthase kinase-3 beta (Homo sapiens) (UniProt P49841); conditions: Compound concentration 1000.0 nM
[13] = target: Tyrosine-protein kinase BTK (Homo sapiens) (UniProt Q06187); conditions: Compound concentration 1000.0 nM
[14] = system: Receptor-type tyrosine-protein kinase FLT3 (Homo sapiens), P36888 [D835Y]; conditions: Compound concentration 1000.0 nM
[15] = system: Mast/stem cell growth factor receptor Kit (Homo sapiens), P10721 [L576P]; conditions: Compound concentration 1000.0 nM
[16] = target: Platelet-derived growth factor receptor alpha (Homo sapiens) (UniProt P16234); conditions: Compound concentration 1000.0 nM
[17] = target: Serine/threonine-protein kinase 32A (Homo sapiens) (UniProt Q8WU08); conditions: Compound concentration 1000.0 nM
[18] = target: Cyclin-dependent kinase 3 (Homo sapiens) (UniProt Q00526); conditions: Compound concentration 1000.0 nM
[19] = target: Interleukin-1 receptor-associated kinase 4 (Homo sapiens) (UniProt Q9NWZ3); conditions: Compound concentration 1000.0 nM
[20] = target: Mu-type opioid receptor (Homo sapiens) (UniProt P35372); conditions: Compound concentration 10.0 uM
[21] = target: 5'-AMP-activated protein kinase catalytic subunit alpha-1 (Homo sapiens) (UniProt Q13131); conditions: Compound concentration 1000.0 nM
[22] = target: Mitogen-activated protein kinase kinase kinase 6 (Homo sapiens) (UniProt O95382); conditions: Compound concentration 1000.0 nM
[23] = target: Inhibitor of nuclear factor kappa-B kinase subunit alpha (Homo sapiens) (UniProt O15111); conditions: Compound concentration 1000.0 nM
[24] = target: Dual specificity protein kinase CLK2 (Homo sapiens) (UniProt P49760); conditions: Compound concentration 1000.0 nM
[25] = target: High affinity nerve growth factor receptor (Homo sapiens) (UniProt P04629); conditions: Compound concentration 1000.0 nM
[26] = target: T1, Alpha-1D adrenergic receptor (Homo sapiens) (UniProt P25100); conditions: Compound concentration 10.0 uM
T1 sequence (whole entry): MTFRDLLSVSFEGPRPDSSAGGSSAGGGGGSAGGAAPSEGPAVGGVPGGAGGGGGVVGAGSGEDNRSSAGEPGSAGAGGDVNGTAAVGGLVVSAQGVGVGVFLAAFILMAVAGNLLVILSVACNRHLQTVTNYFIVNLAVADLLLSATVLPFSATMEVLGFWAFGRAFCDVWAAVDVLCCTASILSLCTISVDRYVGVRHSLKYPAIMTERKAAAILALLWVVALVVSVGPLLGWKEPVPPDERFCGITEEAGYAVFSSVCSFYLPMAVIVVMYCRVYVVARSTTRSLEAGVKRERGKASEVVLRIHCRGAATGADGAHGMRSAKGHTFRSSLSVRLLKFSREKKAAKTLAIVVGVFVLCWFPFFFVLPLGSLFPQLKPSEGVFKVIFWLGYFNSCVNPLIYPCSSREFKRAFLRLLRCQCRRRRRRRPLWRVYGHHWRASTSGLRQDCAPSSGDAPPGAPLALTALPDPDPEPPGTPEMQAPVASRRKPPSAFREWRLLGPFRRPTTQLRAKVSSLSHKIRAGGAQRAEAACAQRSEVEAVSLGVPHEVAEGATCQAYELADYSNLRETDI

[27] = target: Membrane-associated tyrosine- and threonine-specific cdc2-inhibitory kinase (Homo sapiens) (UniProt Q99640); conditions: Compound concentration 1000.0 nM
[28] = target: Cyclin-G-associated kinase (Homo sapiens) (UniProt O14976); conditions: Compound concentration 1000.0 nM
[29] = target: Tyrosine-protein kinase Fyn (Homo sapiens) (UniProt P06241); conditions: Compound concentration 1000.0 nM
[30] = system: Phosphatidylinositol 4,5-bisphosphate 3-kinase catalytic subunit alpha isoform (Homo sapiens), P42336 [E545A]; conditions: Compound concentration 1000.0 nM
[31] = target: Focal adhesion kinase 1 (Homo sapiens) (UniProt Q05397); conditions: Compound concentration 1000.0 nM
[32] = target: Insulin receptor-related protein (Homo sapiens) (UniProt P14616); conditions: Compound concentration 1000.0 nM
[33] = target: Mitogen-activated protein kinase kinase kinase 2 (Homo sapiens) (UniProt Q9Y2U5); conditions: Compound concentration 1000.0 nM
[34] = target: Death-associated protein kinase 3 (Homo sapiens) (UniProt O43293); conditions: Compound concentration 1000.0 nM
[35] = system: Epidermal growth factor receptor (Homo sapiens), P00533 [G719C]; conditions: Compound concentration 1000.0 nM
[36] = target: Serine/threonine-protein kinase 4 (Homo sapiens) (UniProt Q13043); conditions: Compound concentration 1000.0 nM
[37] = target: Tyrosine-protein kinase FRK (Homo sapiens) (UniProt P42685); conditions: Compound concentration 1000.0 nM

Sequence of Interleukin-1 receptor-associated kinase 4 (Homo sapiens) (Q9NWZ3 whole entry): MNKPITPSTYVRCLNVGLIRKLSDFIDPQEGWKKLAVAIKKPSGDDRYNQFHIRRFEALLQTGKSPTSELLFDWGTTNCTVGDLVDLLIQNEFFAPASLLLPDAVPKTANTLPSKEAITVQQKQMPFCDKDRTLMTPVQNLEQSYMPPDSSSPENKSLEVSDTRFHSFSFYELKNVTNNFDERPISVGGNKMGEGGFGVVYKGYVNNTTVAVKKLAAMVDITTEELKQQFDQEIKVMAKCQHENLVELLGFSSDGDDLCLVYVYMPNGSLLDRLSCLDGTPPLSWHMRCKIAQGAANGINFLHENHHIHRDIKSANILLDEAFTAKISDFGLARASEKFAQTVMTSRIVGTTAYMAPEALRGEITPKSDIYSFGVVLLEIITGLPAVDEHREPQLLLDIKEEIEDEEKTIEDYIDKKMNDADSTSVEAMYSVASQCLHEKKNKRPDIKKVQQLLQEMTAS
Sequence of High affinity nerve growth factor receptor (Homo sapiens) (P04629 33-796 limits assumed): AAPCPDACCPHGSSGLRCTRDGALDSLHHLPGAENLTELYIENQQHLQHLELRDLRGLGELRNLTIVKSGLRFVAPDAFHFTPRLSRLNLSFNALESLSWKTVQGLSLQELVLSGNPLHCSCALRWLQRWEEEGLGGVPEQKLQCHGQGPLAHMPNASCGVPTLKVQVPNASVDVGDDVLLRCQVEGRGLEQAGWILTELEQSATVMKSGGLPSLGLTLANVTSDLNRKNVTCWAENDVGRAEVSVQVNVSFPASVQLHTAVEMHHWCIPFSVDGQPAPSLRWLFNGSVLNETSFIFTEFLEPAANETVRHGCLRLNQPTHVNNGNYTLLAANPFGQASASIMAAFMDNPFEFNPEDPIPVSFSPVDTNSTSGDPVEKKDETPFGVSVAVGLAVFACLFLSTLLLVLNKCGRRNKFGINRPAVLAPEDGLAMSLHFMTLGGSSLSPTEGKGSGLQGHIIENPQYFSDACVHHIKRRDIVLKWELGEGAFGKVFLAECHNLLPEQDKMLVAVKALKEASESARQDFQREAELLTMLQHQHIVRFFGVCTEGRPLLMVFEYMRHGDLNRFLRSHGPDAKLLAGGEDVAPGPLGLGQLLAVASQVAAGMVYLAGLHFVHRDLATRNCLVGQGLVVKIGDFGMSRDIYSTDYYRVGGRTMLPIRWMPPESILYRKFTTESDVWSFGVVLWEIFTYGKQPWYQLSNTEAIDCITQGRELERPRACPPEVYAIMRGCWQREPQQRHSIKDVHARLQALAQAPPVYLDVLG
Sequence of Focal adhesion kinase 1 (Homo sapiens) (Q05397 2-1052 limits assumed): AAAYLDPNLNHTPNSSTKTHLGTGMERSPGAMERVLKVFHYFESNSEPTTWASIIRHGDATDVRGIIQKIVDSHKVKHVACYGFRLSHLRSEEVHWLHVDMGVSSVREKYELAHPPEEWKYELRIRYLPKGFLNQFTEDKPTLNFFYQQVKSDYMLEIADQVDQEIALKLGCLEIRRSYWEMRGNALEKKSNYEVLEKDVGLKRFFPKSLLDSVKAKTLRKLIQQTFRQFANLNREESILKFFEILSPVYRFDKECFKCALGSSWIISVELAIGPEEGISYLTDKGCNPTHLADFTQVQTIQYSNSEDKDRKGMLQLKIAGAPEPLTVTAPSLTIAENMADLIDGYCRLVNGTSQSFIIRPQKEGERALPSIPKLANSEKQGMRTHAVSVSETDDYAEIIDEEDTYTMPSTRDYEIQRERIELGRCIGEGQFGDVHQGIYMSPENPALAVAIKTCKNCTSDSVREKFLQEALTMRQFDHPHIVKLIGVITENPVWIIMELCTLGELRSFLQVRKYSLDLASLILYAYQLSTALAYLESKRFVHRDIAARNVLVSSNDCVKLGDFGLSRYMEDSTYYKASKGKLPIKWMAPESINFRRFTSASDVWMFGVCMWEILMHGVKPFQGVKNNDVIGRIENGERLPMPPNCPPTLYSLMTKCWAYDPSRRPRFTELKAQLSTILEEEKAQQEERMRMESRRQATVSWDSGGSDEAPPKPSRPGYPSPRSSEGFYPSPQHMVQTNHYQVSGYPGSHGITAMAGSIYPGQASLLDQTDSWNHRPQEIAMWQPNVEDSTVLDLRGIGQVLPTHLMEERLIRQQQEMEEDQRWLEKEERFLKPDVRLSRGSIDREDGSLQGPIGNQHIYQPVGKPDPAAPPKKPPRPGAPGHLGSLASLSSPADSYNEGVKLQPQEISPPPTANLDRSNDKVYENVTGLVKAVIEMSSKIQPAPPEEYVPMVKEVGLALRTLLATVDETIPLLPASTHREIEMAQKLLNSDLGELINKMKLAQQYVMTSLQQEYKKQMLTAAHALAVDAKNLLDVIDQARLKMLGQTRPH
Sequence of Mu-type opioid receptor (Homo sapiens) (P35372 whole entry): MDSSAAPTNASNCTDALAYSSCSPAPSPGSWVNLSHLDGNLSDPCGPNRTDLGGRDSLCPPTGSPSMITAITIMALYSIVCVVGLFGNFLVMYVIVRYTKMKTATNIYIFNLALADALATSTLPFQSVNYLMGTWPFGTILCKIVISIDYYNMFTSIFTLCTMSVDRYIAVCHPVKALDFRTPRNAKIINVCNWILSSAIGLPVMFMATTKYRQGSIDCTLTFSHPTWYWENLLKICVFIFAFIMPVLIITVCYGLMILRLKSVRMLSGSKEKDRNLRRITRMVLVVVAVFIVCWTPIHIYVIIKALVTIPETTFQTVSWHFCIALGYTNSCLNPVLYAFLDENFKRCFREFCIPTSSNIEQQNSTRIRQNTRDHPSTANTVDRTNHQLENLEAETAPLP
Sequence of Mitogen-activated protein kinase kinase kinase 7 (Homo sapiens) (O43318 whole entry): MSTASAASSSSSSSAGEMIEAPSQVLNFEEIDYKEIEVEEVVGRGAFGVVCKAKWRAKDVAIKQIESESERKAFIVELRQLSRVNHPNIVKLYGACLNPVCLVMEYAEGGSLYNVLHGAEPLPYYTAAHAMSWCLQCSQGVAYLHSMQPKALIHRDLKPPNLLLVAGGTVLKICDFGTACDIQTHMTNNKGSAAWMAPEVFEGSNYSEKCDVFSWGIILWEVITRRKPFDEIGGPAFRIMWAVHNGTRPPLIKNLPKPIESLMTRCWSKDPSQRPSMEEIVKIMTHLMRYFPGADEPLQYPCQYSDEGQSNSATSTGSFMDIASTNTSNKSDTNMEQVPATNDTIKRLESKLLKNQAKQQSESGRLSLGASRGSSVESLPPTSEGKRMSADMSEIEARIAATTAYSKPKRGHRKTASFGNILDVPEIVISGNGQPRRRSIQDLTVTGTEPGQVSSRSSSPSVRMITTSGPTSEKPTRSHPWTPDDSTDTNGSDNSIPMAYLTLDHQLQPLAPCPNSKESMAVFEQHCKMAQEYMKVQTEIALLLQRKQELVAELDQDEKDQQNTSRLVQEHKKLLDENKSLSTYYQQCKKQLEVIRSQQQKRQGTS
Sequence of Tyrosine-protein kinase BTK (Homo sapiens) (Q06187 whole entry): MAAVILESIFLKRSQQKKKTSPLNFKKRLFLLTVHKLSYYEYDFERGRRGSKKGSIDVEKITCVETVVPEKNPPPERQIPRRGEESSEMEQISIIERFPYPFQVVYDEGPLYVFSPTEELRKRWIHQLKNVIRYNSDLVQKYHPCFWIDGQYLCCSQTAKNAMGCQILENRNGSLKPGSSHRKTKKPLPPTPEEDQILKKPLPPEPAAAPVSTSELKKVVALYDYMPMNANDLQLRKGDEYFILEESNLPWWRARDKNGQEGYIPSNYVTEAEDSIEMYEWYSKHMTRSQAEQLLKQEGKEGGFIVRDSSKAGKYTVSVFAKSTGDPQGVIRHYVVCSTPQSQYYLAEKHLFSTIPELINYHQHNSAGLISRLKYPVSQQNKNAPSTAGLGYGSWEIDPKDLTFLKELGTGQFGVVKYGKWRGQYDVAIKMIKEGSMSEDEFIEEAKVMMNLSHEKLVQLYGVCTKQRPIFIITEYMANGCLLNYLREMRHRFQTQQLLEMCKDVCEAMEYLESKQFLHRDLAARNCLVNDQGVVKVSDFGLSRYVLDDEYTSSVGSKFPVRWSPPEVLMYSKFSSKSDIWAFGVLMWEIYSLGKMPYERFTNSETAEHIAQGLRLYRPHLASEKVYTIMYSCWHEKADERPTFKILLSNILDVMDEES
Sequence of Serine/threonine-protein kinase 32A (Homo sapiens) (Q8WU08 whole entry): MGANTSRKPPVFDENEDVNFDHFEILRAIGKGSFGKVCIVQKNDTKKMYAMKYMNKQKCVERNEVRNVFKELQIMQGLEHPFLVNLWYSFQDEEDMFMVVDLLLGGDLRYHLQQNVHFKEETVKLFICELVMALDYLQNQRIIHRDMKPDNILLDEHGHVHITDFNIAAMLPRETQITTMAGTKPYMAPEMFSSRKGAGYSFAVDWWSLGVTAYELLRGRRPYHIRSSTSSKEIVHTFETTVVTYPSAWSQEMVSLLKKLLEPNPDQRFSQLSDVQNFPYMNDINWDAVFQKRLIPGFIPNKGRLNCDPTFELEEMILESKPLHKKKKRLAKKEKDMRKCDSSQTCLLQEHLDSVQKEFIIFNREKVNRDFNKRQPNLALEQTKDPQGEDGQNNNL
Sequence of Sigma intracellular receptor 2 (Homo sapiens) (Q5BJF2 whole entry): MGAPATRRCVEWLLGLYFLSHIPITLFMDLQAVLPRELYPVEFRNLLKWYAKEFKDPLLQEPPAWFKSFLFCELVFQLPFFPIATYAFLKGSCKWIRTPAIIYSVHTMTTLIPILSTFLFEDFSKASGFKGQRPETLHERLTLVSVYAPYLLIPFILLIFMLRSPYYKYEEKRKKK
Sequence of Death-associated protein kinase 3 (Homo sapiens) (O43293 whole entry, looked up): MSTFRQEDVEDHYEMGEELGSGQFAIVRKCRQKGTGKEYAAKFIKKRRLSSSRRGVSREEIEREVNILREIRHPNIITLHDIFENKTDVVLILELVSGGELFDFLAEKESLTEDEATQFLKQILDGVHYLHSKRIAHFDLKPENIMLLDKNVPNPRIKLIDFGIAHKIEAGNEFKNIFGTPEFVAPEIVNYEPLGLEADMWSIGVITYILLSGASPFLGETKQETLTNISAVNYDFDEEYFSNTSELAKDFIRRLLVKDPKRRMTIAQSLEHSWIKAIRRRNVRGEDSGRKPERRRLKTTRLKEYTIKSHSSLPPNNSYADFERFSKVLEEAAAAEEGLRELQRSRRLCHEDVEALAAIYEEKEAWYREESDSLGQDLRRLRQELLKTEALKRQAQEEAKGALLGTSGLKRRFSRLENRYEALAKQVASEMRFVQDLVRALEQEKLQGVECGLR

CS(=O)(=O)NCC[C@H](NC(=O)c1cncc2c1cnn2-c1ccc(F)cc1)c1ccnc(S(C)(=O)=O)c1 [BI 9307]
inactive: residual activity [1] 92% | residual activity [2] 100% | residual activity [3] 100% | residual activity [4] 100% | residual activity [5] 100% | residual activity [6] 95% | residual activity [7] 100% | inhibition [8] -1.85% | residual activity [9] 100% | residual activity [10] 99% | residual activity [11] 100% | residual activity [12] 100% | residual activity [13] 100% | residual activity [14] 97% | residual activity [15] 100% | residual activity [16] 100% | residual activity [17] 74% | residual activity [18] 100% | residual activity [19] 100% | inhibition [20] -0.92% | residual activity [21] 100% | residual activity [22] 100% | residual activity [23] 100% | residual activity [24] 100% | residual activity [25] 97% | inhibition [26] -9.49% | residual activity [27] 84% | residual activity [28] 100% | residual activity [29] 100% | residual activity [30] 100% | residual activity [31] 93% | residual activity [32] 100% | residual activity [33] 100% | residual activity [34] 100% | residual activity [35] 99% | residual activity [36] 100% | residual activity [37] 100%

CS(=O)(=O)c1cc(C2(NC(=O)c3cncc4c3cnn4-c3ccc(F)cc3)CC2)ccn1 [BI 639667]
inactive: residual activity [1] 100% | residual activity [2] 100% | residual activity [3] 94% | residual activity [4] 100% | residual activity [5] 68% | residual activity [6] 89% | residual activity [7] 73% | inhibition [8] 9.02% | residual activity [9] 86% | residual activity [10] 58% | residual activity [11] 99% | residual activity [12] 85% | residual activity [13] 97% | residual activity [14] 98% | residual activity [15] 100% | residual activity [16] 90% | residual activity [17] 71% | residual activity [18] 81% | residual activity [19] 100% | inhibition [20] -7.9% | residual activity [21] 99% | residual activity [22] 100% | residual activity [23] 100% | residual activity [24] 100% | residual activity [25] 96% | inhibition [26] -7.67% | residual activity [27] 85% | residual activity [28] 85% | residual activity [29] 55% | residual activity [30] 100% | residual activity [31] 100% | residual activity [32] 65% | residual activity [33] 84% | residual activity [34] 98% | residual activity [35] 100% | residual activity [36] 77% | residual activity [37] 58%
